Reference: PubChem BioAssay AID1259407 (Chemical Carcinogenesis Research Information System (CCRIS), 2018)
The source made the active and inactive calls. The rule behind the calls is not given here.

System: CCRIS mutagenicity, Ames/micronucleus/aberration tests
Experiment: CCRIS mutagenicity studies
[1] = Test System: AMES SALMONELLA TYPHIMURIUM, Strain/Indicator: TA98, Metabolic Activation: NONE, Method: STANDARD PLATE
[2] = Test System: AMES SALMONELLA TYPHIMURIUM, Strain/Indicator: TA98, Metabolic Activation: RAT LIVER S-9, AROCLOR 1254, Method: STANDARD PLATE
[3] = Test System: AMES SALMONELLA TYPHIMURIUM, Strain/Indicator: TA100, Metabolic Activation: NONE, Method: STANDARD PLATE
[4] = Test System: AMES SALMONELLA TYPHIMURIUM, Strain/Indicator: TA1538, Metabolic Activation: NONE, Method: STANDARD PLATE
[5] = Test System: AMES SALMONELLA TYPHIMURIUM, Strain/Indicator: TA100, Metabolic Activation: RAT, LIVER, S-9, AROCLOR 1254, Method: STANDARD PLATE
[6] = Test System: AMES SALMONELLA TYPHIMURIUM, Strain/Indicator: TA102, Metabolic Activation: NONE, Method: STANDARD PLATE
[7] = Test System: AMES SALMONELLA TYPHIMURIUM, Strain/Indicator: TA102, Metabolic Activation: RAT, LIVER, S-9, AROCLOR 1254, Method: STANDARD PLATE
[8] = Test System: AMES SALMONELLA TYPHIMURIUM, Strain/Indicator: TA98, Metabolic Activation: RAT, LIVER, S-9, AROCLOR 1254, Method: STANDARD PLATE
[9] = Test System: AMES SALMONELLA TYPHIMURIUM, Strain/Indicator: TA1535, Metabolic Activation: NONE, Method: STANDARD PLATE
[10] = Test System: AMES SALMONELLA TYPHIMURIUM, Strain/Indicator: TA1535, Metabolic Activation: RAT, LIVER, S-9, AROCLOR 1254, Method: STANDARD PLATE

With O=C1OC(O)C(C(Br)Br)=C1Br (configuration not stated) the mutagenic call [1] was “active; positive”, the mutagenic call [2] was “inactive; negative” and the mutagenic call [3] was “active; positive”. For the same compound, the mutagenic call (Test System: AMES SALMONELLA TYPHIMURIUM, Strain/Indicator: TA100, Metabolic Activation: RAT LIVER S-9, AROCLOR 1254, Method: STANDARD PLATE) was “inactive; negative”.
For Nc1c(O)cc(Cc2cc(Cl)c(N)c(OS(=O)(=O)O)c2)cc1Cl, the mutagenic call (Test System: AMES SALMONELLA TYPHIMURIUM, Strain/Indicator: TA1538, Metabolic Activation: NONE, Method: PREINCUBATION) was “inactive; negative” and the mutagenic call [4] was “inactive; negative”.
In the case of C[C@@H]1O[C@@H](OC[C@H]2O[C@@H](Oc3c(-c4ccc(O)c(O)c4)oc4cc(O)cc(O)c4c3=O)[C@H](O)[C@@H](O)[C@@H]2O)[C@H](O)[C@H](O)[C@H]1O, the mutagenic call (Test System: Ames Salmonella typhimurium, Strain/Indicator: TA98, Metabolic Activation: None, Method: Standard plate) is reported as “inactive; negative” and the mutagenic call (Test System: Ames Salmonella typhimurium, Strain/Indicator: TA98, Metabolic Activation: Rat, Liver, S-9, Aroclor 1254, Method: Standard Plate) is reported as “inactive; negative”.
In the case of NN1C(=O)c2ccccc2C1=O, the mutagenic call (Test System: AMES SALMONELLA TYPHIMURIUM, Strain/Indicator: TA97A, Metabolic Activation: NONE, Method: STANDARD PLATE) is reported as “inactive; negative”, the mutagenic call (Test System: AMES SALMONELLA TYPHIMURIUM, Strain/Indicator: TA97A, Metabolic Activation: RAT, LIVER, S-9, AROCLOR 1254, Method: STANDARD PLATE) is reported as “inactive; negative” and the mutagenic call [3] is reported as “inactive; negative”. The mutagenic call [5] was “inactive; negative”, the mutagenic call [6] was “inactive; negative” and the mutagenic call [7] was “inactive; negative”. The mutagenic call (Test System: AMES SALMONELLA TYPHIMURIUM, Strain/Indicator: TA104, Metabolic Activation: NONE, Method: STANDARD PLATE) was “inactive; negative” and the mutagenic call (Test System: AMES SALMONELLA TYPHIMURIUM, Strain/Indicator: TA104, Metabolic Activation: RAT, LIVER, S-9, AROCLOR 1254, Method: STANDARD PLATE) was “inactive; negative”.
With CCCO the mutagenic call (Test System: AMES SALMONELLA TYPHIMURIUM, Strain/Indicator: TA98, Metabolic Activation: HAMSTER, LIVER, S-9, AROCLOR 1254, Method: STANDARD PLATE) was “inactive; negative”, the mutagenic call [1] was “inactive; negative” and the mutagenic call [8] was “inactive; negative”. For the same compound, the mutagenic call (Test System: AMES SALMONELLA TYPHIMURIUM, Strain/Indicator: TA100, Metabolic Activation: HAMSTER, LIVER, S-9, AROCLOR 1254, Method: STANDARD PLATE) was “inactive; negative”, the mutagenic call [3] was “inactive; negative” and the mutagenic call [5] was “inactive; negative”. For the same compound, the mutagenic call (Test System: AMES SALMONELLA TYPHIMURIUM, Strain/Indicator: TA1535, Metabolic Activation: HAMSTER, LIVER, S-9, AROCLOR 1254, Method: STANDARD PLATE) was “inactive; negative”, the mutagenic call [9] was “inactive; negative” and the mutagenic call [10] was “inactive; negative”. The mutagenic call (Test System: AMES SALMONELLA TYPHIMURIUM, Strain/Indicator: TA1537, Metabolic Activation: HAMSTER, LIVER, S-9, AROCLOR 1254, Method: STANDARD PLATE) was “inactive; negative”, the mutagenic call (Test System: AMES SALMONELLA TYPHIMURIUM, Strain/Indicator: TA1537, Metabolic Activation: NONE, Method: STANDARD PLATE) was “inactive; negative” and the mutagenic call (Test System: AMES SALMONELLA TYPHIMURIUM, Strain/Indicator: TA1537, Metabolic Activation: RAT, LIVER, S-9, AROCLOR 1254, Method: STANDARD PLATE) was “inactive; negative”. For the same compound, the mutagenic call (Test System: AMES SALMONELLA TYPHIMURIUM, Strain/Indicator: TA1538, Metabolic Activation: HAMSTER, LIVER, S-9, AROCLOR 1254, Method: STANDARD PLATE) was “inactive; negative”, the mutagenic call [4] was “inactive; negative” and the mutagenic call (Test System: AMES SALMONELLA TYPHIMURIUM, Strain/Indicator: TA1538, Metabolic Activation: RAT, LIVER, S-9, AROCLOR 1254, Method: STANDARD PLATE) was “inactive; negative”. For the same compound, the mutagenic call (Test System: MOUSE LYMPHOMA, Strain/Indicator: L5178Y (TK+/TK-), Metabolic Activation: NONE, Method: SUSPENSION/PLATE) was “inactive; negative” and the mutagenic call (Test System: MOUSE LYMPHOMA, Strain/Indicator: L5178Y (TK+/TK-), Metabolic Activation: RAT, LIVER, S-9, AROCLOR 1254, Method: SUSPENSION/PLATE) was “inactive; negative”.
O=[N+]([O-])[O-].O=[N+]([O-])[O-].O=[N+]([O-])[O-].[Gd+3] was tested, and the mutagenic call (Test System: UDS HUMAN LYMPHOCYTES, Strain/Indicator: THYMIDINE INCORPORATION, Metabolic Activation: NONE, Method: LIQUID SCINTILLATION COUNTING) was “active; positive”.
c1ccc2c(c1)ncc1cnc3ccccc3c12 was tested, and the mutagenic call [1] was “inactive; negative”, the mutagenic call [2] was “inactive; negative” and the mutagenic call (Test System: E.COLI, Strain/Indicator: WP2, Metabolic Activation: NONE, Method: SPOT TEST) was “inactive; negative”. The mutagenic call (Test System: E.COLI, Strain/Indicator: WP2 UVRA, Metabolic Activation: NONE, Method: STANDARD PLATE) was “inactive; negative”, the mutagenic call (Test System: E.COLI, Strain/Indicator: WP2 UVRA, Metabolic Activation: R, L, S-9, AROCLOR 1254, Method: STANDARD PLATE) was “inactive; negative” and the mutagenic call (Test System: ESCHERICHIA COLI, Strain/Indicator: WP2 UVR A, Metabolic Activation: NONE, Method: STANDARD PLATE) was “inactive; negative”. For the same compound, the mutagenic call (Test System: ESCHERICHIA COLI, Strain/Indicator: WP2 UVR A, Metabolic Activation: RAT LIVER S-9, AROCLOR 1254, Method: STANDARD PLATE) was “inactive; negative”.
For COC1=CC(=O)O[C@@H](CCc2ccccc2)C1, the mutagenic call (Test System: Mouse lymphoma cells, Strain/Indicator: L5178Y ( tk+/tk-), Metabolic Activation: Human, Liver, S-9, Method: Suspension/plate) was “inactive; negative”.
In the case of CN(C)C1Cc2cccc3cccc(c23)C1, the mutagenic call (Test System: AMES SALMONELLA TYPHIMURIUM, Strain/Indicator: TA97, Metabolic Activation: NONE, Method: STANDARD PLATE) is reported as “inactive; negative”, the mutagenic call (Test System: AMES SALMONELLA TYPHIMURIUM, Strain/Indicator: TA97, Metabolic Activation: RAT, LIVER, S-9, AROCLOR 1254, Method: STANDARD PLATE) is reported as “inactive; negative” and the mutagenic call [1] is reported as “inactive; negative”. For the same compound, the mutagenic call [8] was “active; positive”, the mutagenic call [3] was “inactive; negative” and the mutagenic call [5] was “inactive; negative”. The mutagenic call [6] was “inactive; negative”, the mutagenic call [7] was “inactive; negative” and the mutagenic call [9] was “inactive; negative”. The mutagenic call [10] was “inactive; negative”.
